Experimental data taken from patent US10286022B2, “Medicinal composition of extract of seed of emblica officinalis and method of preparing the same” (priority 2013, dated 2019).

Experiments:
[1] = system: streptozotocin induced diabetic rats; assay: Antidiabetic activity in streptozotocin induced diabetic rats (Example 22); assay type: in vivo, rat
Experimental: The amla seed extract as prepared in example 1 was evaluated for antidiabetic activity in experimental rats. Male/Female albino wistar rats were maintained as per standard guidelines: housed in polypropylene cages, under 12 hour artificial light and dark cycles at a temperature of 24±2° C., given a standard pellet diet and water ad libitum. The animals were acclimatized to the animal house conditions for a week before beginning the experiment. Diabetes was induced by injecting streptozotocin 35 mg/kg dissolved in 0.1M citrate buffer of pH 4.5, intra-peritoneally. […] Animals with FBG above 200 mg/dl were considered diabetic. The diabetic animals were randomly divided into three groups of six animals each. […] The plasma CRP level was measured initially and then at Day 28 of the study.

HMG-CoA Reductase (HMGR) = biological target: T1, HMG-CoA Reductase (HMGR) (Homo sapiens, UniProt P04035); assay: HMG-CoA reductase inhibition assay (Example 30); assay type: biochemical; details: read-out: % Inhibition over control
T1 sequence (P04035 426-888 limits assumed): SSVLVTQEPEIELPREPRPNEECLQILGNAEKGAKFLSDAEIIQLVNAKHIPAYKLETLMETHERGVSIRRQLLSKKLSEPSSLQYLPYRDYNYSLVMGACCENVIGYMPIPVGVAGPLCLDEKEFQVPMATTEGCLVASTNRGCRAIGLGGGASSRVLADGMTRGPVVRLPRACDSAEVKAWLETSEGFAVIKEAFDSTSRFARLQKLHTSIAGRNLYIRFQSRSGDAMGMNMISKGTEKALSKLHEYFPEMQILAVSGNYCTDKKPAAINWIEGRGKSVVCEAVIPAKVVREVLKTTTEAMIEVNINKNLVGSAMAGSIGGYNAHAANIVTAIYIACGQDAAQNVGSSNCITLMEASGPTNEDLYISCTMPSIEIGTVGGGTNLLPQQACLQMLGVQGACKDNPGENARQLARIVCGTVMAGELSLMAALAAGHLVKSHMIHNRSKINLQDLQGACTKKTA
Experimental: Amla seed extract prepared as per example 1 and water extract of dried Amla seed prepared as per example 8 was weighed separately and each extract was dissolved in dimethyl sulfoxide (DMSO) to prepare a stock of 400 mg/ml stock solution of each. From this stock, different dose levels were prepared in DMSO for further experimental use. […] The optical density (OD) values were recorded using spectrophotometer at regular time intervals. […] Based on the specific activity values from all the test doses, EC50 (Effective Concentration 50) were determined by plotting a curve between Specific activity Vs. Test concentration. EC50 values (μg/ml) and IC50 (μM) were determined by interpolation method by using Graph pad prism, version 5.01.

Compound | Fasting Blood Glucose level Day 7 ([1]; 0.5 mg/kg for 28 days) | Fasting Blood Glucose level Day 14 ([1]; 0.5 mg/kg for 28 days) | Fasting Blood Glucose level Day 21 ([1]; 0.5 mg/kg for 28 days) | Fasting Blood Glucose level Day 28 ([1]; 0.5 mg/kg for 28 days) | effect on blood glucose level ([1]; 0.5 mg/kg for 28 days) | Fasting Blood Glucose level Day 1 (Initial) ([1]; 0.5 mg/kg for 28 days group) | effect on CRP level ([1]; 0.5 mg/kg for 28 days, compared to initial CRP value) | CRP level Day 28 (Final) ([1]; plasma, 0.5 mg/kg for 28 days) | CRP level Day 1 (Initial) ([1]; plasma, 0.5 mg/kg for 28 days group) | inhibition at 2.5 µM (HMG-CoA Reductase (HMGR); test concentration 2.5 μM) | inhibition at 5 µM (HMG-CoA Reductase (HMGR); test concentration 5 μM) | inhibition at 10 µM (HMG-CoA Reductase (HMGR); test concentration 10 μM) | inhibition at 20 µM (HMG-CoA Reductase (HMGR); test concentration 20 μM) | inhibition at 40 µM (HMG-CoA Reductase (HMGR); test concentration 40 μM) | inhibition at 60 µM (HMG-CoA Reductase (HMGR); test concentration 60 μM) | inhibition at 80 µM (HMG-CoA Reductase (HMGR); test concentration 80 μM) | inhibition at 100 µM (HMG-CoA Reductase (HMGR); test concentration 100 μM)
COc1ccc(Cl)cc1C(=O)NCCc1ccc(S(=O)(=O)NC(=O)NC2CCCCC2)cc1 [Glibenclamide] | 211 mg/dL | 179 mg/dL | 136 mg/dL | 109 mg/dL | decreased the blood glucose level to nearly normal | 406 mg/dL | failed to decrease the CRP level significantly | 9.6 mg/L | 10.8 mg/L |  |  |  |  |  |  |  | 
CC[C@H](C)C(=O)O[C@H]1C[C@@H](C)C=C2C=C[C@H](C)[C@H](CC[C@@H]3C[C@@H](O)CC(=O)O3)[C@H]21 [LOVASTATIN, lovastatin] |  |  |  |  |  |  |  |  |  | 37% | 37.6% | 37.7% | 41.5% | 55.6% | 76.5% | 86.6% | 98.5%
